Measurements published in patent publication EP4603105A1, “PHARMACEUTICAL COMPOSITION CONTAINING CYCLIC COMPOUND HAVING SELECTIVE KRAS INHIBITORY EFFECT AGAINST HRAS AND NRAS” (CHUGAI SEIYAKU KABUSHIKI KAISHA, priority 2022, dated 2024).
*1 amine or outer side, *2 acyl side, *3 side chain or, on linkers, in order; H or OH if unused. Where a SMILES comes first, the peptide text is derived from it. Bridges are numbered along the chain shown (N, C = ends). [ ]: non-standard residue; d: D form. The star is where a group is joined. hPhe(3,5-F2-4-CF3) = N[C@@H](CCc1cc(F)c(C(F)(F)F)c(F)c1)C(=O)O; hPhe(3-Cl-4-CF3) = N[C@@H](CCc1ccc(C(F)(F)F)c(Cl)c1)C(=O)O; NPrPhe(4-CF3) = CCCN[C@@H](Cc1ccc(C(F)(F)F)cc1)C(=O)O; X46 = C=CCCN([C@@H](Cc1ccc(C)cc1)C(=O)[*:2])[*:1]; NMeGly(cPent) = CN[C@H](C(=O)O)C1CCCC1; Nva(3-Et) = CCC(CC)[C@H](N)C(=O)O; αMeF = C[C@](N)(Cc1ccccc1)C(=O)O; NMeD = CN[C@@H](CC(=O)O)C(=O)O; NMeL = CN[C@@H](CC(C)C)C(=O)O; Morpholide = C1CN(*)CCO1; Ac5c = NC1(C(=O)O)CCCC1; Aze = O=C(O)[C@@H]1CCN1; Sar = CNCC(=O)O

Experiments:
[1] = biological target: GDP-bound NRAS wild-type protein (Homo sapiens, UniProt P01111); experiment: Binding to NRAS by surface plasmon resonance (SPR), KD and KD ratio to KRAS
Sequence of GDP-bound NRAS wild-type protein (P01111 whole entry): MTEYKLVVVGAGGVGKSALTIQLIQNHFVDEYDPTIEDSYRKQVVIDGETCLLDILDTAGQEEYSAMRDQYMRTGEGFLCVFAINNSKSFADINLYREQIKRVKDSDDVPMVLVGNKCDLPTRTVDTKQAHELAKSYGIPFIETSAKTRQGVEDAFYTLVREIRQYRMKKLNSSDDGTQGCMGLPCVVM
In short: (§1)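 GDP-loaded biotinylated Avi-tag RAS proteins (E. coli-expressed) captured on a Biotin CAPture chip at ~100–300 RU; single-cycle kinetics at 30°C, 100 µL/min, 75 s injections of rising compound concentrations. HBS pH 7.4 running buffer with 1 mM DTT, 10 mM MgCl2, 10 µM GDP, 4% DMSO. KD from 1:1 binding fit.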

HRAS wild-type protein = HRAS wild-type protein (Homo sapiens, UniProt P01112); experiment: Binding to HRAS by surface plasmon resonance (SPR), KD and KD ratio to KRAS
Sequence of HRAS wild-type protein (P01112 whole entry): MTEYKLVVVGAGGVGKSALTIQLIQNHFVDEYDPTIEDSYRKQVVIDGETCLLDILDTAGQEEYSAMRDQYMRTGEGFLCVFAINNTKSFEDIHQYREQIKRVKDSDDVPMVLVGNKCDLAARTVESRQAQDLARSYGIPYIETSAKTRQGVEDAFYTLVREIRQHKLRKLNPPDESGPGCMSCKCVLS
In short: as §1

[2] = system: human lung cancer strain NCI-H441; type: cell-based
In short: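 Readout: […] after the ATP-based reagent. Compound: serial dilutions in dimethyl sulfoxide.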

[3] = ratio of KD for GDP-bound NRAS wild-type protein to KD for KRAS
[4] = ratio of KD for HRAS wild-type protein to KD for KRAS
[5] = ratio of the KD value with respect to GDP-bound NRAS wild-type protein to the KD value with respect to KRAS
[6] = ratio of the KD value with respect to HRAS wild-type protein to the KD value with respect to KRAS
[7] = ratio of KD value for GDP-bound NRAS wild-type protein to KD value for KRAS (SPR)
[8] = ratio of KD value for HRAS wild-type protein to KD value for KRAS (SPR)

SMILES	NRAS /KRAS [1, 3]	HRAS /KRAS (HRAS wild-type protein; [4])	IC50 [2] [nM]	NRAS /KRAS [1, 5]	HRAS /KRAS (HRAS wild-type protein; [6])	NRAS /KRAS [1, 7]	HRAS /KRAS (HRAS wild-type protein; [8])
CCC[C@H]1C(=O)N[C@@H](C2CCOCC2)C(=O)N(C)CC(=O)N(C)[C@H]2C/C=C\CCN(C2=O)[C@@H](Cc2ccc(C(F)(F)F)cc2)C(=O)N(C)CC(=O)N[C@@H](CCc2ccc(C(F)(F)F)c(Cl)c2)C(=O)N2C[C@H](OCC)C[C@H]2C(=O)NC2(CC(C)(C)C2)C(=O)N(C)[C@@H](C2CCCC2)C(=O)N(C)[C@H](C(=O)N(C)C)CC(=O)N1C [PP3000]	AA (a compound having 20 or more is denoted as AA)	A (a compound having 10 or more and less than 20 is denoted as A)	63				
CCO[C@H]1CCN2C(=O)[C@H](CCc3cc(F)c(C(F)(F)F)c(F)c3)NC(=O)CN(C)C(=O)[C@H](Cc3ccc(C(F)(F)F)cc3)N3CCCCC[C@@H](C3=O)N(C)C(=O)CN(C)C(=O)[C@H]([C@@H](C)CC)NC(=O)[C@H](CC(C)C)N(C)C(=O)C[C@@H](C(=O)N3CCOCC3)N(C)C(=O)[C@H](C3CCCC3)N(C)C(=O)C3(CCC3)NC(=O)[C@H]12 [PP1068]	A (a compound having 10 or more and less than 20 is denoted as A)	B (a compound having 3 or more and less than 10 is denoted as B)	121				
CC[C@H](C)[C@@H]1NC(=O)[C@H](CC(C)C)N(C)C(=O)C[C@@H](C(=O)N2CCOCC2)N(C)C(=O)[C@H](C2CCCC2)N(C)C(=O)C2(CCCC2)NC(=O)[C@@H]2CCCN2C(=O)[C@H](CCc2cc(F)c(C(F)(F)F)c(F)c2)NC(=O)CN(C)C(=O)[C@H](Cc2ccc(C(F)(F)F)cc2)N2CCCCC[C@@H](C2=O)N(C)C(=O)[C@@H]2CCN2C1=O [PP0484]			165	A (a compound having 10 or more and less than 20 is denoted as A)	B (a compound having 3 or more and less than 10 is denoted as B)		
CCO[C@@H]1C[C@H]2C(=O)NC3(CCC3)C(=O)N(C)[C@@H](C3CCCC3)C(=O)N(C)[C@H](C(=O)N(C)C)CC(=O)N(C)[C@@H](CC(C)C)C(=O)N[C@@H]([C@@H](C)CC)C(=O)N(C)CC(=O)N(C)[C@H]3C/C=C\CCN(C3=O)[C@@H](Cc3ccc(C(F)(F)F)cc3)C(=O)N(C)CC(=O)N[C@@H](CCc3cc(F)c(C(F)(F)F)c(F)c3)C(=O)N2C1 [PP1107]	A (a compound having 10 or more and less than 20 is denoted as A)	A (a compound having 10 or more and less than 20 is denoted as A)	5.4				
CCO[C@@H]1C[C@H]2C(=O)N(C)C3(CCC3)C(=O)N(C)[C@@H](C3CCCC3)C(=O)N(C)[C@H](C(=O)N(C)C)CC(=O)N(C)[C@@H](CC)C(=O)N[C@@H]([C@@H](C)CC)C(=O)N(C)CC(=O)N(C)[C@H]3C/C=C\CCN(C3=O)[C@@H](Cc3ccc(C(F)(F)F)cc3)C(=O)N(C)CC(=O)N[C@@H](CCc3cc(F)c(C(F)(F)F)c(F)c3)C(=O)N2C1 [PP1779]			5.4			A (a compound having 10 or more and less than 20 is denoted as A)	B (a compound having 3 or more and less than 10 is denoted as B)
C=CCCN1C(=O)CN(C)C(=O)CN(C)C(=O)[C@H]([C@@H](C)CC)NC(=O)[C@H](CC(C)C)N(C)C(=O)C[C@@H](C(=O)N2CCOCC2)N(C)C(=O)[C@H](C2CCCC2)N(C)C(=O)C2(CCCC2)NC(=O)[C@@H]2CCCN2C(=O)[C@H](CCc2ccc(C(F)(F)F)c(Cl)c2)NC(=O)CN(C)C(=O)[C@@H]1Cc1ccc(C)cc1 [PP0101] ([NMeL]I[Sar][Sar][X46][Sar][hPhe(3-Cl-4-CF3)]P[Ac5c][NMeGly(cPent)][NMeD]-Morpholide; lactam N-11)	B (a compound having 3 or more and less than 10 is denoted as B)	C (A compound having a KD ratio of 0.1 or more and less than 3 is denoted as C)	10.4				
CCO[C@@H]1C[C@H]2C(=O)NC3(CCC3)C(=O)N(C)[C@@H](C(CC)CC)C(=O)N(C)[C@H](C(=O)N(C)C)CC(=O)N(C)[C@@H](CC3CCCC3)C(=O)N[C@@H]([C@@H](C)CC)C(=O)N(C)CC(=O)N(C)[C@H]3C/C=C\CCN(C3=O)[C@@H](Cc3ccc(F)cc3)C(=O)N(C)CC(=O)N[C@@H](CCc3cc(F)c(C(F)(F)F)c(F)c3)C(=O)N2C1 [PP1517]			33.6			A (a compound having 10 or more and less than 20 is denoted as A)	A (a compound having 10 or more and less than 20 is denoted as A)
CCO[C@@H]1C[C@H]2C(=O)NC3(CCC3)C(=O)N(C)[C@@H](C3CCCC3)C(=O)N(C)[C@H](C(=O)N(C)C)CC(=O)N(C)[C@@H](CC3CCC3)C(=O)N[C@@H]([C@@H](C)CC)C(=O)N(C)CC(=O)N(C)[C@H]3CCCCN(C3=O)[C@@H](Cc3ccc(C(F)(F)F)cc3)C(=O)N(C)CC(=O)N[C@@H](CCc3cc(F)c(C(F)(F)F)c(F)c3)C(=O)N2C1 [PP0698]			4.1	C (A compound having a KD ratio of 0.1 or more and less than 3 is denoted as C)	C (A compound having a KD ratio of 0.1 or more and less than 3 is denoted as C)		
CCCN1C(=O)[C@@H]2CCN2C(=O)CN(C)C(=O)[C@H](C(CC)CC)NC(=O)[C@H](CC(C)C)N(C)C(=O)C[C@@H](C(=O)N2CCOCC2)N(C)C(=O)[C@H](C2CCCC2)N(C)C(=O)C2(CCCC2)NC(=O)[C@@H]2CCCN2C(=O)[C@H](CCc2cc(F)c(C(F)(F)F)c(F)c2)NC(=O)CN(C)C(=O)[C@@H]1Cc1ccc(C(F)(F)F)cc1 [PP0804] ([NMeL][Nva(3-Et)][Sar][Aze][NPrPhe(4-CF3)][Sar][hPhe(3,5-F2-4-CF3)]P[Ac5c][NMeGly(cPent)][NMeD]-Morpholide; lactam N-11)	C (A compound having a KD ratio of 0.1 or more and less than 3 is denoted as C)	B (a compound having 3 or more and less than 10 is denoted as B)	40.9				
CCO[C@@H]1C[C@H]2C(=O)NC3(CC(C)(C)C3)C(=O)N(C)[C@@H](C(CC)CC)C(=O)N(C)[C@H](C(=O)N(C)C)CC(=O)N(C)[C@H]3CCCCC/C=C/c4ccc(cc4)C[C@@H](C(=O)N(C)CC(=O)N[C@@H](CCc4ccc(Cl)c(Cl)c4)C(=O)N2C1)N1CC/C=C\C[C@@H](C1=O)N(C)C(=O)CN(C)C(=O)[C@H]([C@@H](C)CC)NC3=O [PP3050]	AA (a compound having 20 or more is denoted as AA)	A (a compound having 10 or more and less than 20 is denoted as A)	19.3				
CCC[C@H]1C(=O)N[C@@H]([C@@H](C)CC)C(=O)N(C)CC(=O)N(C)[C@H]2C/C=C\CCN(C2=O)[C@@H](Cc2ccc(C(F)(F)F)cc2)C(=O)N(C)CC(=O)N[C@@H](CCc2ccc(C(F)(F)F)c(Cl)c2)C(=O)N2CCCC[C@H]2C(=O)NC2(CC(C)(C)C2)C(=O)N(C)[C@@H](C(CC)CC)C(=O)N(C)[C@H](C(=O)N(C)C)CC(=O)N1C [PP2928]	AA (a compound having 20 or more is denoted as AA)	A (a compound having 10 or more and less than 20 is denoted as A)	168				
CCCN1C(=O)CN(C)C(=O)CN(C)C(=O)[C@H]([C@@H](C)CC)NC(=O)[C@H](CC(C)C)N(C)C(=O)C[C@@H](C(=O)N(C)C)N(C)C(=O)[C@H](C2CCCC2)N(C)C(=O)[C@](C)(Cc2ccccc2)NC(=O)[C@@H]2CCCN2C(=O)[C@H](CCc2cc(F)c(C(F)(F)F)c(F)c2)NC(=O)CN(C)C(=O)[C@@H]1Cc1ccc(C(F)(F)F)cc1 [PP0740] ([NMeL]I[Sar][Sar][NPrPhe(4-CF3)][Sar][hPhe(3,5-F2-4-CF3)]P[αMeF][NMeGly(cPent)][NMeD]-NMe2; lactam N-11)			51.2	B (a compound having 3 or more and less than 10 is denoted as B)	C (A compound having a KD ratio of 0.1 or more and less than 3 is denoted as C)		
CCO[C@@H]1C[C@H]2C(=O)NC3(CCC3)C(=O)N(C)[C@@H](C3CCCC3)C(=O)N(C)[C@H](C(=O)N(C)CC)CC(=O)N(C)[C@@H](CC)C(=O)N[C@@H]([C@@H](C)CC)C(=O)N(C)CC(=O)N(C)[C@H]3C/C=C\CCN(C3=O)[C@@H](Cc3ccc(C)cc3)C(=O)N(C)CC(=O)N[C@@H](CCc3ccc(C(F)(F)F)c(OC)c3)C(=O)N2C1 [PP1869]			36.4			A (a compound having 10 or more and less than 20 is denoted as A)	A (a compound having 10 or more and less than 20 is denoted as A)
C#CCN1CC(=O)N(C)[C@H]2C/C=C\CCN(C2=O)[C@@H](Cc2ccc(C)cc2)C(=O)N(C)CC(=O)N[C@@H](CCc2cc(F)c(C(F)(F)F)c(F)c2)C(=O)N2C[C@H](OCC)C[C@H]2C(=O)NC2(CC(C)(C)C2)C(=O)N(C)[C@@H](C2CCCC2)C(=O)N(C)[C@H](C(=O)N(C)C)CC(=O)N(C)[C@@H](CC(C)C)C(=O)N[C@@H]([C@@H](C)CC)C1=O [PP2052]			4.1	A (a compound having 10 or more and less than 20 is denoted as A)	A (a compound having 10 or more and less than 20 is denoted as A)		
